From paper PMC9353477, “A Functional Screening Identifies a New Organic Selenium Compound Targeting Cancer Stem Cells: Role of c‐Myc Transcription Activity Inhibition in Liver Cancer” (Advanced Science, 2022) come the findings set out here.

The test system of one data set is Hep3B. In words: cells. To be noted: 48 h; for viability at 10 µM: Homo sapiens, Hep3B, read-out: Cell viability of Hep3B (Mean of Hep3B/DMSO) (%). The method, then:
(§1) The L02 and Hep3B cells were seeded in 96‐well plates (5000 cells per well), 24 h later, the cells were treated with DMSO (Control group) or each small molecule compound (10 µM) for another 48 h. Then cells were treated with CCK‐8 reagent (Dojindo Laboratories, Kumamoto, Japan) and incubated at 37 °C for 2 h. Absorbance at 450 nm was measured by SpectraMax M2e (Molecular devices, San Jose, CA). Five replicate wells for each group and three independent experiments were conducted. The cell viability (%) of each small molecule compound was normalized as the ratio of each compound/DMSO in L02 and Hep3B cells, respectively. The relative cell viability (%) = The cell viability of L02 cells (%) − The cell viability of Hep3B cells (%). […] Given that the common concentration used in in vitro drug screening is 10 µM,^[ [24] ^] therefore, in the three rounds of drug screening, all small molecules are 10 µM. […] A) Flowchart of functional screening. B) Scattered plot showing the cell viability of each small molecule in human normal fetal liver cell L02 and liver cancer Hep3B cells, 48 h after treatment with each compound (10 µM). […] C) Images and statistical histogram of 3D tumor spheroids from Hep3B (cultured for 5 days, followed by treated with 16 candidate compounds (10 µM) for another 3 days). Tumor spheroid was quantified as the total cross‐sectional area of spheroid in each group (area mean), n = 3, Means ± SD, ^* p < 0.05, ^** p < 0.01, Student's t‐test. D) Statistical histogram of the CD13^+CD133^+ population, 48 h after treatment with each candidate compound (10 µM), analyzed by FCM, n = 3, Means ± SD; ^* p < 0.05, ^** p < 0.01; Student's t‐test. E) Representative images of tumorspheres from HCC cells that received a 48‐h pretreatment with each candidate compound (10 µM) before tumorsphere culture. Bars, 1000 µm. Tumorspheres were quantified as the total cross‐sectional area of tumorspheres in each group (area sum), and similarly hereafter unless indicated. Statistical histogram of the tumorsphere size. n = 3, means ± SD, each compound compared with DMSO, ^* p < 0.05, ^** p < 0.01, Student's t‐test. F) Heat maps of functional screening results, shown by the relative value of CD13^+CD133^+ population (D) and tumorsphere size (E), with normalizing the vehicle group as 100%. CU27 chemical structure is shown in the right.

The nature of a further data set: in vitro. The settings on record: human, l02 cells. The method, then: as §1
Data set [1] addresses T1, truncated c-Myc protein (a.a 354-437) (Homo sapiens, UniProt P01106).
T1 construct: bHLH/LZ domain fragment, residues 354-437; purified by DEAE ion exchange; coupled to CM5 chip; no Max present
Put plainly: SPR (Biacore S200, CM5 chip). It is filed as binding. For orientation: In SPR one partner is held on a chip, and binding of the other changes the refractive index at the surface.

T1 sequence (P01106 369-452): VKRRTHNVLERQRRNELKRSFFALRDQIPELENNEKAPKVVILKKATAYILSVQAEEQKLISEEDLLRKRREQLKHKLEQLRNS

As to `NC1(Cc2ccc(Cl)cc2)CCN(c2ncnc3[nH]ccc23)CC1` [CCT128930], the viability at 10 µM with Hep3B stood at 34.4%.
For `CCn1c(=O)c(-c2cc[nH]n2)cc2c(C)nc(N)nc21` [Voxtalisib], the viability at 48 h, 10 µM in “in vitro” is 26.9%. In the data set with Hep3B, the viability at 10 µM is 23.1%.
For the compound `COc1ccc(COc2cc3oc(=O)c4cc(C(C)O)ccc4c3cc2OC)cc1` (stereo not drawn) [Palomid529], in the data set “in vitro”, the viability at 48 h, 10 µM was determined as 58.1%. Further, the viability at 10 µM in the data set with Hep3B is 62.4%.
Take `Cc1[nH]nc2ccc(-c3cncc(OC[C@@H](N)Cc4ccccc4)c3)cc12` [A-674563]: the viability at 10 µM with Hep3B is 21.7%.
Turning to `O=C1NCCc2[nH]c(-c3ccncc3)cc21` [PHA-767491], in the data set “in vitro”, the viability at 48 h, 10 µM was 22.2%.
Regarding `O=C1NC(=O)/C(=C/c2ccc3nccc(-c4ccncc4)c3c2)S1` [GSK1059615], the viability at 48 h, 10 µM in “in vitro” was 13.5%. Besides, the viability at 10 µM in the data set on Hep3B was 17.9%.
As to `c1ccc2c(CCNc3ccc(Nc4ccncc4)cc3)c[nH]c2c1` [JNJ26854165], the viability at 48 h, 10 µM in “in vitro” was found to be 38%. Besides, the viability at 10 µM with Hep3B was 17.7%.
As to `CCC(=O)N1CCN(c2ccc(-n3c(=O)ccc4cnc5ccc(-c6cnc7ccccc7c6)cc5c43)cc2C(F)(F)F)CC1` [Torin1], the viability at 10 µM in the data set with Hep3B was found to be 24%.
Consider `CNC(=O)Nc1ccc(-c2nc(N3CC4CCC(C3)O4)c3cnn(C4CCC5(CC4)OCCO5)c3n2)cc1` [WYE-125132], for which the viability at 48 h, 10 µM in “in vitro” was 45.1%. In the data set on Hep3B, the viability at 10 µM amounted to 27.2%.
Consider `CC(C)n1nc(-c2cc3cc(O)ccc3[nH]2)c2c(N)ncnc21` [Torkinib], for which the viability at 10 µM with Hep3B was determined as 44.8%.
The same measure, in the same setting: under `O=S(=O)(NCCNC/C=C/c1ccc(Br)cc1)c1cccc2cnccc12` [H89 2HCL] stands 57%.
`CCn1c(-c2nonc2N)nc2c(C#CC(C)(C)O)ncc(OC[C@H]3CCCNC3)c21` [GSK690693]: the viability at 48 h, 10 µM in the data set “in vitro” worked out at 49.3%. Also, in the data set with Hep3B, the viability at 10 µM came to 63.8%.
Take `Cn1c(=O)n(-c2ccc(C(C)(C)C#N)cc2)c2c3cc(-c4cnc5ccccc5c4)ccc3ncc21` [Dactolisib]: the viability at 48 h, 10 µM in “in vitro” came to 27.2%. Also, the “Cell viability of Hep3B (Mean of Hep3B/DMSO) (%)” value with Hep3B ([mut] cells, 10 µM) was 21.03%.
On to `C=CCNC(=[Se])NN=C(c1ccccc1)c1ncccn1` [4a, Phenyl‐2‐pyrimidinyl ketone 4‐allyl‐3‐amino selenourea], for which, in data set [1], the Kd (as a rule, the concentration at which binding is half-saturated) is 0.562 nM. The compound further gave a viability at 48 h, 10 µM in “in vitro” of 79.4%.
Regarding `Cc1c(CN2CCN(C(=O)[C@H](C)O)CC2)sc2c(N3CCOCC3)nc(-c3cnc(N)nc3)nc12` [Apitolisib], in “in vitro”, the viability at 48 h, 10 µM was 37.1%. The viability at 10 µM in the data set with Hep3B was 29.4%.
